Our source for the IC50 values is patent publication US20260242395A1, “AMINOHETEROARYL KINASE INHIBITORS” (ALLORION THERAPEUTICS INC, priority 2022, published 2026).

For assay [1], the target named is T1, CDK4/CyclinD1 (Homo sapiens, UniProt P11802).
T1 construct: purchased ProQinase 0142-0143-1
The assay can be described thus: CDK4/CyclinD1 kinase inhibitory activity (Caliper mobility shift). To be noted: enzyme 20 nM, ATP 672 uM, 28° C. 30 min; read-out: CDK4/Cyclin D1 IC50. The assay is classed as biochemical. The procedure:
CDK4/CyclinD1 kinase inhibitory activity (IC50): 5 μl of various dilutions of test compound in 1× kinase buffer (20 mM HEPES, pH 7.5, 10 mM MgCl2, 2 mM DTT and 0.01% Triton X-100) was mixed with 10 μL of either CDK4/Cyclin D1 (ProQinase, 0142-0143-1 #, final concentration 20 nM in 1× Kinase buffer) or in 384 plates and incubated at room temperature for 10 min. To initiate each reaction, 10 μL of peptide solution containing fluorescently-labeled-peptide 8(5-FAM-IPTSPITTTYFFFKKK-COOH, GL, 112396 #, final concentration 3000 nM) and ATP (final concentration 672 uM for CDK4/CyclinD1) in 1×Kinase buffer was added to each of the wells containing test compound and CDK4/CyclinD1 mixture. The reaction is then allowed to proceed at 28° C. for 30 min and terminated by the addition of 25 μL stop buffer (100 mM HEPES pH 7.5, 50 mM EDTA, 0.2% Coating Reagent #3 (Perkin Elmer, 760050 #) and 0.015% Brij-35).
(§1) Following the kinase reaction, Caliper EZ reader II (Downstream voltages: −500V, Upstream voltages: −2250V, Base pressure −0.5 PSI, Screen pressure −1.2 PSI) was used to separate the phosphorylated (product) and the unphosphorylated (substrate) fluorescently-labeled peptide 8 based on their different mobility. Both substrate and product were measured and the ratio of these values were used to generate % conversion by Caliper EZ reader II. These conversion values were then transformed into % inhibition of kinase activity using the formula: % Inhibition=[(MA−X)/(MA−MI)]×100% where MA=conversion value of DMSO only controls, MI=conversion value of no enzyme controls and X=conversion value at any given compound dose. IC50 values were then calculated by plotting dose-response curves and then using the XLfit application in Excel software.

For assay [2], the target named is T2, CDK6/CyclinD3 (Homo sapiens, UniProt Q00534).
T2 construct: purchased Carna 04-107
T2 sequence (Q00534 whole entry): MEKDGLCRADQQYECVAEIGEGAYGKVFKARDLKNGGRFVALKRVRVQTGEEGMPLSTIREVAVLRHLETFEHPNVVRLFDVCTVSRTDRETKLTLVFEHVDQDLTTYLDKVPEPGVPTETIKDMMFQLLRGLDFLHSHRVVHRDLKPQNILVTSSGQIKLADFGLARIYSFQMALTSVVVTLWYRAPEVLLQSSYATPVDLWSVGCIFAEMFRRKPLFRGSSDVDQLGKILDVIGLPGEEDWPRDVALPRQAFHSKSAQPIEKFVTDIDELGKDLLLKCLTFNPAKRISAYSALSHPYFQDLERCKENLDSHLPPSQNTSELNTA
T2 sequence (P30281 whole entry partner): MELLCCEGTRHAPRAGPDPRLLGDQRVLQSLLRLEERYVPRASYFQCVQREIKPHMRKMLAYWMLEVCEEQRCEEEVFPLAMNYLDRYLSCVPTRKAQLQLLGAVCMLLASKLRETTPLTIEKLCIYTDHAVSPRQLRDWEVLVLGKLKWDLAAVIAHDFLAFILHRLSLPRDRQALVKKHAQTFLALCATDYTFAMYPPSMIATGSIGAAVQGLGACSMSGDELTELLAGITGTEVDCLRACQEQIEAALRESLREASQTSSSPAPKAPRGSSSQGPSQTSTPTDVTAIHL
The assay can be described thus: CDK6/CyclinD3 kinase inhibitory activity (Caliper mobility shift). The assay is classed as biochemical. To be noted: enzyme 15 nM, ATP 800 μM, 28° C. 30 min; read-out: CDK6/Cyclin D3 IC50. The procedure: CDK6/CyclinD3 kinase inhibitory activity (IC50): 5 μl of various dilutions of test compound in 1× kinase buffer (50 mM HEPES pH 7.5, 10 mM MgCl2, 2 mM DTT and 0.01% Brij-35) was mixed with 10 μL of CDK6/CyclinD3 (Carna, 04-107 #, final concentration 15 nM in 1× Kinase buffer) in 384 plates and incubated at room temperature for 10 min. To initiate each reaction, 10 μL of peptide solution containing fluorescently-labeled -peptide 8(5-FAM-IPTSPITTTYFFFKKK-COOH, GL, 112396 #, final concentration 3000 nM) and ATP (final concentration 800 μM for CDK6/CyclinD3 in 1× Kinase buffer was added to each of the wells containing test compound and CDK6/CyclinD3. The reaction is then allowed to proceed at 28° C. for 30 min and terminated by the addition of 25 μL stop buffer (100 mM HEPES pH 7.5, 50 mM EDTA, 0.2% Coating Reagent #3 (Perkin Elmer, 760050 #) and 0.015% Brij-35).
as §1

Some results are limits rather than exact numbers.

T1 sequence (P11802 whole entry): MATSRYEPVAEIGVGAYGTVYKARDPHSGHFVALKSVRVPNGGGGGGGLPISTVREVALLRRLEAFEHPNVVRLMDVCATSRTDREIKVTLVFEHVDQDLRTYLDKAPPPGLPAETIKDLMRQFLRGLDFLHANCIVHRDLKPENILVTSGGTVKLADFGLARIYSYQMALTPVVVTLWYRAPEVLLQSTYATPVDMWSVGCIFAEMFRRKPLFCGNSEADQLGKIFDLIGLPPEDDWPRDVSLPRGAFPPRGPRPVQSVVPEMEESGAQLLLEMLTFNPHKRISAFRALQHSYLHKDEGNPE
T1 sequence (P24385 whole entry partner): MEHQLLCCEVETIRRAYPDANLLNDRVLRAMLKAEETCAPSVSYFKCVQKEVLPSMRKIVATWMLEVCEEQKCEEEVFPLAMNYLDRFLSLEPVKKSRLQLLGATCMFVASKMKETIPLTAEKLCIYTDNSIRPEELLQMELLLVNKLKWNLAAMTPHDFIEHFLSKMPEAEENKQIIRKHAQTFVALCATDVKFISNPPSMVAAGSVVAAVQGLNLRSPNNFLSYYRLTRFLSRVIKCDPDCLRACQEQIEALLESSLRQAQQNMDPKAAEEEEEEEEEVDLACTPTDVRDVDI

Take `[2H]c1nc(N[C@@H]2CCOC[C@H]2O)nc(-c2cc(F)c3nc(C)c(C(C)O)c(C)c3c2)c1Cl` (single isomer, unassigned) [Example 85a]: the IC50 in assay [1] was below 0.01 µM; in assay [2] it was 0.01 to 0.1 µM.

With `CC(O)c1cnc2c(F)cc(-c3nc(N[C@@H]4CCOC[C@H]4O)ncc3Cl)cc2c1Cl` (single isomer, unassigned) [Example 40b], the IC50 in assay [1] was below 0.01 µM; in assay [2], 0.1 to 1 µM.

For the compound `CC(C)(O)c1cnc2c(F)cc(-c3nc(Nc4ccc(C(=O)CO)cn4)ncc3F)cc2c1Cl` [Example 80], the IC50 was 0.01 to 0.1 µM in assay [1] and at least 1 µM in assay [2].

`Cc1nc2c(F)cc(-c3nc(N[C@@H]4CCOC[C@H]4O)ncc3F)cc2cc1C(C)(C)O` [Example 51]: the IC50 in assay [1] is below 0.01 µM; in assay [2] it was 0.1 to 1 µM.

As for `O[C@@H]1COCC[C@H]1Nc1ncc(Cl)c(-c2cc(F)c3ncc4c(c3c2)C2CCC(C4)N2)n1` (single isomer, unassigned) [Example 20a], the IC50 in assay [1] was 0.1 to 1 µM; in assay [2], at least 1 µM.

As to `CC1NCCc2cnc3c(F)cc(-c4nc(N[C@@H]5CCOC[C@H]5O)ncc4Cl)cc3c21` (single isomer, unassigned) [Example 31b], the IC50 in assay [1] is below 0.01 µM; in assay [2], 0.1 to 1 µM.

With `O[C@@H]1COCC[C@H]1Nc1ncc(Cl)c(-c2cc(F)c3ncc(-c4ncc[nH]4)cc3c2)n1` [Example 28], the IC50 in assay [1] is 0.01 to 0.1 µM; in assay [2], 0.1 to 1 µM.

Turning to `CNC(C)c1cnc2c(F)cc(-c3nc(N[C@@H]4CCOC[C@H]4O)ncc3Cl)cc2c1C` (single isomer, unassigned) [Example 48b], the IC50 lay within 0.01 to 0.1 µM in assay [1] and 0.1 to 1 µM in assay [2].

With `O[C@@H]1COCC[C@H]1Nc1ncc(Cl)c(-c2cc(F)c3ncc(C4(O)CC4)c(Cl)c3c2)n1` [Example 44], the IC50 is below 0.01 µM in assay [1] and 0.01 to 0.1 µM in assay [2].

As to `CNC(C)c1cnc2c(F)cc(-c3nc(N[C@@H]4CCOC[C@H]4O)ncc3Cl)cc2c1C` (single isomer, unassigned) [Example 48a], the IC50 was below 0.01 µM in assay [1] and 0.1 to 1 µM in assay [2].

In the case of `CNC(C)c1cnc2c(F)cc(-c3nc(N[C@@H]4CCOC[C@H]4O)ncc3F)cc2c1C` (single isomer, unassigned) [Example 59b], the figures for the IC50 in assay [1] and in assay [2] were 0.01 to 0.1 µM and 0.1 to 1 µM, respectively.

Take `Cc1c(C(C)(C)O)nnc2c(F)cc(-c3nc(N[C@@H]4CCOC[C@H]4O)ncc3Cl)cc12` [Example 87]: the IC50 lay within 0.01 to 0.1 µM in assay [1] and 0.1 to 1 µM in assay [2].

Regarding `CC1(C)Cc2cnc3c(F)cc(-c4nc(N[C@@H]5COC[C@H]5O)ncc4Cl)cc3c2CN1` [Example 50], the IC50 in assay [1] is 0.01 to 0.1 µM; in assay [2], at least 1 µM.

Take `CC(C)(O)c1cnc2c(F)cc(-c3nc(Nc4ccc(-c5cn[nH]c5)cn4)ncc3F)cc2c1Cl` [Example 55]: the IC50 in assay [1] was below 0.01 µM; in assay [2], at least 1 µM.

In the case of `[2H]C1([2H])NC(C)(C)Cc2cnc3c(F)cc(-c4nc(N[C@@H]5CCOC[C@H]5O)ncc4F)cc3c21` [Example 62, (3S,4R)-4-((5-fluoro-4-(7-fluoro-3,3-dimethyl-1,2,3,4-tetrahydrobenzo[c][2,6]naphthyridin-9-yl-1,1-d2)pyrimidin-2-yl)amino)tetrahydro-2H-pyran-3-ol], the IC50 was below 0.01 µM in assay [1] and 0.01 to 0.1 µM in assay [2].

On to `[2H]c1nc(N[C@@H]2CCOC[C@H]2O)nc(-c2cc(F)c3nc(C)c(C(C)O)c(C)c3c2)c1Cl` (single isomer, unassigned) [Example 85b], for which the IC50 in assay [1] was below 0.01 µM; in assay [2], 0.01 to 0.1 µM.

Take `COc1c(C(C)(C)O)cnc2c(F)cc(-c3nc(N[C@@H]4CCOC[C@H]4O)ncc3Cl)cc12` [Example 43]: the IC50 in assay [1] was below 0.01 µM; in assay [2], 0.1 to 1 µM.

As for `Cc1nc2c(F)cc(-c3nc(N[C@@H]4CCOC[C@H]4O)ncc3F)cc2c2c1CC(C)(C)NC2` [Example 92], the figures for the IC50 in assay [1] and in assay [2] were below 0.01 µM and 0.1 to 1 µM, respectively.

`CN1Cc2c(cnc3c(F)cc(-c4nc(N[C@@H]5CCOC[C@H]5O)ncc4Cl)cc23)C(O)C1(C)C` (single isomer, unassigned) [Example 111a]: the IC50 in assay [1] was in the range of 0.01 to 0.1 µM; in assay [2] it was 0.1 to 1 µM.

Consider `[2H]c1nc2c(F)cc(-c3nc(N[C@@H]4CCOC[C@H]4O)ncc3F)cc2c2c1CC1(CC1)NC2` [Example 70], for which the results for the IC50 in assay [1] and in assay [2] were below 0.01 µM and 0.1 to 1 µM, respectively.

With `CNC(C)c1cnc2c(F)cc(-c3nc(N[C@@H]4CCOC[C@H]4O)ncc3F)cc2c1Cl` (single isomer, unassigned) [Example 64a], the IC50 fell in the range of 0.01 to 0.1 µM in assay [1] and 0.1 to 1 µM in assay [2].

In the case of `Cc1cc(C(C)(C)O)c2cc(-c3nc(N[C@@H]4CCOC[C@H]4O)ncc3Cl)ccc2n1` [Example 4, (3S,4R)-4-((5-chloro-4-(4-(2-hydroxypropan-2-yl)-2-methylquinolin-6-yl)pyrimidin-2-yl)amino)tetrahydro-2H-pyran-3-ol], the IC50 in assay [1] and in assay [2] was 0.1 to 1 µM in each case.

In the case of `Cc1n[nH]c2c1-c1cc(-c3nc(N[C@@H]4CCOC[C@H]4O)ncc3Cl)ccc1OC2` [Example 13, (3S,4R)-4-((5-chloro-4-(1-methyl-3,4-dihydrochromeno[3,4-c]pyrazol-8-yl)pyrimidin-2-yl)amino)tetrahydro-2H-pyran-3-ol], the IC50 was in the range of 0.01 to 0.1 µM in assay [1] and 0.1 to 1 µM in assay [2].

On to `CNC(C)c1cnc2c(F)cc(-c3nc(N[C@@H]4CCOC[C@H]4O)ncc3F)cc2c1Cl` (single isomer, unassigned) [Example 64b], for which the IC50 in assay [1] was 0.01 to 0.1 µM; in assay [2], 0.1 to 1 µM.

Consider `Cc1nc2c(F)cc(-c3nc(N[C@@H]4CCOC[C@H]4O)ncc3Cl)cc2c2c1CC1(CC1)NC2` [Example 69], for which the IC50 was below 0.01 µM in assay [1] and 0.1 to 1 µM in assay [2].

On to `CNC(C)c1cc2cc(-c3nc(N[C@@H]4CCOC[C@H]4O)ncc3F)cc(F)c2nc1C` (single isomer, unassigned) [Example 54b], for which the IC50 in assay [1] was below 0.01 µM; in assay [2], 0.1 to 1 µM.

For `Cc1nc2c(F)cc(-c3ccnc(N[C@@H]4CCOC[C@H]4O)n3)cc2c(C)c1C(C)O` (single isomer, unassigned) [Example 82a], the IC50 lay in the range of 0.01 to 0.1 µM in assay [1] and 0.1 to 1 µM in assay [2].

On to `Cc1nc2c(F)cc(-c3cc(N[C@@H]4CCOC[C@H]4O)ncc3F)cc2cc1C(C)(C)O` [Example 78], for which the IC50 was below 0.01 µM in assay [1] and 0.1 to 1 µM in assay [2].

In the case of `Cc1n[nH]c2cnc3ccc(-c4nc(N[C@@H]5CCOC[C@H]5O)ncc4Cl)cc3c12` [Example 11, (3S,4R)-4-((5-chloro-4-(1-methyl-3H-pyrazolo[3,4-c]quinolin-8-yl)pyrimidin-2-yl)amino)tetrahydro-2H-pyran-3-ol], the figures for the IC50 in assay [1] and in assay [2] were 0.01 to 0.1 µM and 0.1 to 1 µM, respectively.

On to `Cc1nc2c(F)cc(-c3nc(N[C@@H]4CCOC[C@H]4O)ncc3F)cc2cc1C(C)NC1CC1` (single isomer, unassigned) [Example 74b], for which the IC50 in assay [1] was below 0.01 µM; in assay [2], 0.1 to 1 µM.

On to `Cc1cc(C(C)(C)O)c2cc(-c3nc(N[C@@H]4CCOC[C@H]4O)ncc3Cl)cc(F)c2n1` [Example 75], for which the IC50 in assay [1] was 0.01 to 0.1 µM; in assay [2], 0.1 to 1 µM.

For `[2H]c1nc(N[C@@H]2CCOC[C@H]2O)nc(-c2cc(F)c3nc(C)c4c(c3c2)CNC(C)(C)C4)c1Cl` [Example 103], the figures for the IC50 in assay [1] and in assay [2] were below 0.01 µM and 0.1 to 1 µM, respectively.

Regarding `CC1(C)NCc2c(cnc3c(F)cc(-c4nc(N[C@@H]5CCOC[C@H]5O)ncc4F)cc23)C1O` (single isomer, unassigned) [Example 106a], the IC50 in assay [1] was below 0.01 µM; in assay [2], 0.1 to 1 µM.

Turning to `Cc1nc2c(F)cc(-c3ccnc(N[C@@H]4CCOC[C@H]4O)n3)cc2c2c1CC(C)(C)NC2` [Example 99], the results for the IC50 in assay [1] and in assay [2] were 0.01 to 0.1 µM and at least 1 µM, respectively.

In the case of `[2H]c1nc2c(F)cc(-c3ccnc(N[C@@H]4CCOC[C@H]4O)n3)cc2c2c1CC(C)(C)NC2` [Example 101], the IC50 is below 0.01 µM in assay [1] and 0.1 to 1 µM in assay [2].
